# Test system: yeast-like fungi (C. glabrata)
# Experiment: Flow cytometry of urine specimen spiked with yeast-like fungi: fluorescence stainability of the fungi
# Format: cell-based
# Settings: average fluorescence signal of yeast-like fungi in human urine without erythrocytes; substance at 1.0 wt % in diluting liquid in place of 2-phenoxyethanol; relative values on scale 0-255
# Protocol: A staining liquid was used which was obtained by dissolving a fluorescent dye represented by the following formula in ethylene glycol so that the final concentration in the sample for analysis would be 6 ppm.
# In the step S1, the sample preparing section 200 is controlled to execute the preparation of a sample for analysis. The operation of the sample preparing section 200 in the step S1 will be described with reference to FIG. 5. First, the dispensing device 224 sucks 522 μL of a diluting liquid from the sample container 231 of the reagent setting section 222, and then sucks 180 µL of a specimen (human urine) from the specimen container 225 that is set in the specimen setting section 221. The dispensing device 224 then dispenses the sucked diluting liquid and specimen to the reaction vessel 226 that is set in the incubator 223. Next, the dispensing device 224 sucks 18 μL of a staining liquid from the reagent container 227 of the reagent setting section 222, and dispenses the staining liquid to the reaction vessel 226. Thereafter, the incubator 223 stirs the mixture for 10 seconds to stain the diluted specimen while keeping the liquid temperature within the reaction vessel 226 containing the specimen, diluting liquid, and staining liquid to be 35 °C. The sample liquid for analysis thus prepared is sucked by the dispensing device 224, and is supplied to the sample container 233. The sample liquid for analysis supplied to the sample container 233 is let to flow through the flow cell 301 of the detecting section 300.
# In the step S2, the detecting section 300 is controlled to detect signals reflecting the characteristics of each particle from the particles in the sample liquid for analysis. The operation of the detecting section 300 in the step S2 will be described with reference to FIG. 6. When the sample liquid is supplied to the sample container 233 as described above, the sample liquid is guided to the nozzle 303 by the operation of pumps and valves (not illustrated). Then, the sample liquid is ejected from the nozzle 303 to the flow cell 301. Simultaneously with this, a sheath liquid is supplied to the flow cell 301 from a sheath liquid container (not illustrated) via a sheath liquid inlet 304. By this, the sample liquid is surrounded by the sheath liquid in the flow cell 301, and is further narrowed down at by the orifice section 302 to flow. By narrowing the flow of the sample liquid, the particles such as erythrocytes and bacteria contained in the sample liquid are arranged in one line to flow through the orifice section 302. A laser beam emitted from the laser light source 306 is condensed by the condenser lens 307 and is radiated to the sample liquid that is flowing through the orifice section 302. The forward scattered light emitted from a particle in the sample liquid irradiated with the laser beam is condensed by the collector lens 309. Then the forward scattered light that has passed through the pinhole 310 is received and subjected to photoelectric conversion by the photodiode 308 to become a pulse-like forward scattered light signal. The fluorescence emitted from the particle in the sample liquid irradiated with the laser beam is condensed by the collector lens 312. Then the fluorescence that has passed through the filter 313 and the pinhole 314 is received and subjected to photoelectric conversion by the photomultiplier tube 311 to become a pulse-like fluorescence signal. The forward scattered light signal and the fluorescence signal are amplified respectively by the amplifiers 315, 316 and are sent to the controlling section 400.
# First, the forward scattered light signal and the fluorescence signal detected by the detecting section are input into the signal processing circuit 403.
row,Compound,Fluorescence intensity
1,CC(O)COc1ccccc1 (stereo not shown) [1-phenoxy-2-propanol],103
2,c1ccc2scnc2c1 [Benzothiazole],92
3,OCc1ccccc1 [Benzyl alcohol],73
4,Oc1ccccc1 [Phenol],55
5,CC(=O)Oc1ccccc1 [Phenyl acetate],82
6,OCCc1ccccc1 [β-phenethyl alcohol],84

# Same assay, conditions: human urine with erythrocytes plus C. glabrata; diluting liquid with 2-phenoxyethanol 7.5 g/l, pH 7.0 (Example 1) versus without (Example 2)
row,Compound,Fluorescence intensity of yeast-like fungi compared with erythrocytes (two-dimensional scattergram)
1,OCCOc1ccccc1 [2-phenoxyethanol],larger fluorescence intensity than the erythrocytes
